Measurements taken from PubChem BioAssay (NCI).
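Protocol summary: plate cells (96-well), add compound at 5 concentrations, incubate 48 h, interpolate endpoints linearly. GI50 = concentration required for 50% inhibition of growth. TGI: concentration producing complete growth inhibition.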

What was measured:
Experiment in all cases: NCI-60 cell line screen, 48 h
MOLT-4 leukemia = tested on: MOLT-4 leukemia
CCRF-CEM leukemia = tested on: CCRF-CEM leukemia
SNB-19 CNS = tested on: SNB-19 CNS
T-47D breast = tested on: T-47D breast
SR leukemia = tested on: SR leukemia
M14 melanoma = tested on: M14 melanoma
SK-MEL-5 melanoma = tested on: SK-MEL-5 melanoma
K-562 leukemia = tested on: K-562 leukemia
SF-268 CNS = tested on: SF-268 CNS
HL-60(TB) leukemia = tested on: HL-60(TB) leukemia
SF-539 CNS = tested on: SF-539 CNS
NCI-H23 lung = tested on: NCI-H23 lung
LOX IMVI melanoma = tested on: LOX IMVI melanoma
UO-31 renal = tested on: UO-31 renal
RPMI-8226 leukemia = tested on: RPMI-8226 leukemia
SN12C renal = tested on: SN12C renal
RXF 393 renal = tested on: RXF 393 renal
TK-10 renal = tested on: TK-10 renal
HS 578T breast = tested on: HS 578T breast
HCT-15 colon = tested on: HCT-15 colon
CAKI-1 renal = tested on: CAKI-1 renal
HOP-62 NSCLC = tested on: HOP-62 NSCLC
A549 NSCLC = tested on: A549 NSCLC
SK-MEL-28 melanoma = tested on: SK-MEL-28 melanoma
ACHN renal = tested on: ACHN renal
A498 renal = tested on: A498 renal
SNB-75 CNS = tested on: SNB-75 CNS
MALME-3M melanoma = tested on: MALME-3M melanoma
KM12 colon = tested on: KM12 colon
HT29 colon = tested on: HT29 colon
SF-295 CNS = tested on: SF-295 CNS
HOP-92 NSCLC = tested on: HOP-92 NSCLC
MDA-MB-435 = tested on: MDA-MB-435
HCC-2998 colon = tested on: HCC-2998 colon
NCI-H460 lung = tested on: NCI-H460 lung
786-0 renal = tested on: 786-0 renal
DU-145 prostate = tested on: DU-145 prostate
SW-620 colon = tested on: SW-620 colon
MDA-MB-231 breast = tested on: MDA-MB-231 breast
NCI-H522 lung = tested on: NCI-H522 lung
NCI/ADR-RES ovarian = tested on: NCI/ADR-RES ovarian
PC-3 prostate = tested on: PC-3 prostate
NCI-H226 lung = tested on: NCI-H226 lung
OVCAR-4 ovarian = tested on: OVCAR-4 ovarian
MCF7 breast = tested on: MCF7 breast
SK-OV-3 ovarian = tested on: SK-OV-3 ovarian
HCT-116 colon = tested on: HCT-116 colon
U251 CNS = tested on: U251 CNS
IGROV1 ovarian = tested on: IGROV1 ovarian
UACC-62 melanoma = tested on: UACC-62 melanoma
UACC-257 melanoma = tested on: UACC-257 melanoma
COLO 205 colon = tested on: COLO 205 colon
OVCAR-8 ovarian = tested on: OVCAR-8 ovarian
OVCAR-3 ovarian = tested on: OVCAR-3 ovarian
EKVX NSCLC = tested on: EKVX NSCLC
SK-MEL-2 melanoma = tested on: SK-MEL-2 melanoma
OVCAR-5 ovarian = tested on: OVCAR-5 ovarian
BT-549 breast = tested on: BT-549 breast

Structure (SMILES): CN1CCN(Cc2ccc(NC(=O)c3cncc(C#Cc4cnc5ccc(N6CCN(C)CC6)nn45)c3)cc2C(F)(F)F)CC1
- GI50 (MOLT-4 leukemia): 1.33 µM
- TGI (MOLT-4 leukemia): 3.51 µM
- GI50 (CCRF-CEM leukemia): 1.94 µM
- TGI (CCRF-CEM leukemia): 6.47 µM
- GI50 (SNB-19 CNS): 2.29 µM
- TGI (SNB-19 CNS): 4.63 µM
- GI50 (T-47D breast): 18 µM
- TGI (T-47D breast): 41.8 µM
- GI50 (SR leukemia): 0.781 µM
- TGI (SR leukemia): 2.92 µM
- GI50 (M14 melanoma): 1.58 µM
- TGI (M14 melanoma): 3.24 µM
- GI50 (SK-MEL-5 melanoma): 1.53 µM
- TGI (SK-MEL-5 melanoma): 2.91 µM
- GI50 (K-562 leukemia): 0.0576 µM
- TGI (K-562 leukemia): 1.63 µM
- GI50 (SF-268 CNS): 1.53 µM
- TGI (SF-268 CNS): 3.2 µM
- GI50 (HL-60(TB) leukemia): 2.18 µM
- TGI (HL-60(TB) leukemia): 4.11 µM
- GI50 (SF-539 CNS): 0.414 µM
- TGI (SF-539 CNS): 1.74 µM
- GI50 (NCI-H23 lung): 1.37 µM
- TGI (NCI-H23 lung): 2.96 µM
- GI50 (LOX IMVI melanoma): 1.16 µM
- TGI (LOX IMVI melanoma): 2.42 µM
- GI50 (UO-31 renal): 3.75 µM
- TGI (UO-31 renal): 14.5 µM
- GI50 (RPMI-8226 leukemia): 2.05 µM
- TGI (RPMI-8226 leukemia): 7.41 µM
- GI50 (SN12C renal): 1.15 µM
- TGI (SN12C renal): 2.56 µM
- GI50 (RXF 393 renal): 0.786 µM
- TGI (RXF 393 renal): 2.08 µM
- GI50 (TK-10 renal): 2.06 µM
- TGI (TK-10 renal): 4.29 µM
- GI50 (HS 578T breast): 1.71 µM
- TGI (HS 578T breast): 6.57 µM
- GI50 (HCT-15 colon): 1.43 µM
- TGI (HCT-15 colon): 3.37 µM
- GI50 (CAKI-1 renal): 1.67 µM
- TGI (CAKI-1 renal): 3.28 µM
- GI50 (HOP-62 NSCLC): 2.06 µM
- TGI (HOP-62 NSCLC): 7.02 µM
- GI50 (A549 NSCLC): 1.62 µM
- TGI (A549 NSCLC): 3.91 µM
- GI50 (SK-MEL-28 melanoma): 11.9 µM
- TGI (SK-MEL-28 melanoma): 24.4 µM
- GI50 (ACHN renal): 1.33 µM
- TGI (ACHN renal): 2.62 µM
- GI50 (A498 renal): 2.13 µM
- TGI (A498 renal): 3.61 µM
- GI50 (SNB-75 CNS): 1.49 µM
- TGI (SNB-75 CNS): 2.95 µM
- GI50 (MALME-3M melanoma): 2.57 µM
- TGI (MALME-3M melanoma): 11.2 µM
- GI50 (KM12 colon): 0.0292 µM
- TGI (KM12 colon): 1.39 µM
- GI50 (HT29 colon): 1.18 µM
- TGI (HT29 colon): 3.43 µM
- GI50 (SF-295 CNS): 1.47 µM
- TGI (SF-295 CNS): 2.98 µM
- GI50 (HOP-92 NSCLC): 1.34 µM
- TGI (HOP-92 NSCLC): 8.48 µM
- GI50 (MDA-MB-435): 1.41 µM
- TGI (MDA-MB-435): 3.06 µM
- GI50 (HCC-2998 colon): 1.64 µM
- TGI (HCC-2998 colon): 3.05 µM
- GI50 (NCI-H460 lung): 1.87 µM
- TGI (NCI-H460 lung): 4.05 µM
- GI50 (786-0 renal): 1.55 µM
- TGI (786-0 renal): 3.11 µM
- GI50 (DU-145 prostate): 1.59 µM
- TGI (DU-145 prostate): 2.94 µM
- GI50 (SW-620 colon): 2.12 µM
- TGI (SW-620 colon): 6.99 µM
- GI50 (MDA-MB-231 breast): 0.751 µM
- TGI (MDA-MB-231 breast): 2.35 µM
- GI50 (NCI-H522 lung): 1.44 µM
- TGI (NCI-H522 lung): 2.96 µM
- GI50 (NCI/ADR-RES ovarian): 1.81 µM
- TGI (NCI/ADR-RES ovarian): 3.64 µM
- GI50 (PC-3 prostate): 1.66 µM
- TGI (PC-3 prostate): 5.1 µM
- GI50 (NCI-H226 lung): 0.436 µM
- TGI (NCI-H226 lung): 10.7 µM
- GI50 (OVCAR-4 ovarian): 1.23 µM
- TGI (OVCAR-4 ovarian): 3.01 µM
- GI50 (MCF7 breast): 0.835 µM
- TGI (MCF7 breast): 2.4 µM
- GI50 (SK-OV-3 ovarian): 15 µM
- TGI (SK-OV-3 ovarian): 30.7 µM
- GI50 (HCT-116 colon): 1.05 µM
- TGI (HCT-116 colon): 2.62 µM
- GI50 (U251 CNS): 1.66 µM
- TGI (U251 CNS): 3.32 µM
- GI50 (IGROV1 ovarian): 1.75 µM
- TGI (IGROV1 ovarian): 4.16 µM
- GI50 (UACC-62 melanoma): 14.5 µM
- TGI (UACC-62 melanoma): 27.8 µM
- GI50 (UACC-257 melanoma): 4.98 µM
- TGI (UACC-257 melanoma): 18.8 µM
- GI50 (COLO 205 colon): 1.58 µM
- TGI (COLO 205 colon): 3.63 µM
- GI50 (OVCAR-8 ovarian): 1.76 µM
- TGI (OVCAR-8 ovarian): 3.63 µM
- GI50 (OVCAR-3 ovarian): 2.15 µM
- TGI (OVCAR-3 ovarian): 4.11 µM
- GI50 (EKVX NSCLC): 1.3 µM
- TGI (EKVX NSCLC): 2.84 µM
- GI50 (SK-MEL-2 melanoma): 10.7 µM
- TGI (SK-MEL-2 melanoma): 23.3 µM
- GI50 (OVCAR-5 ovarian): 1.83 µM
- TGI (OVCAR-5 ovarian): 4.22 µM
- GI50 (BT-549 breast): 1.44 µM
- TGI (BT-549 breast): 2.88 µM
